Measured values as given in patent US8937091B2 (Japan Science and Technology Agency, priority 2009, dated 2015).

Assays:
[1] = system: IICR (IP3 induced calcium release) in CHO cells; experiment: Assay of IICR (IP3 induced calcium release)-inhibiting action; type: cell-based, Chinese hamster; conditions: CHO cells, 10 μM ATP; for inhibition at 10 µM / inhibition at 30 µM / inhibition at 100 µM: Cricetulus griseus, CHO, read-out: IICR level (percentage of inhibition)
Outline: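 Inhibition (%) of the intracellular calcium increase triggered by 10 μM ATP, measured in CHO cells in BSS with calcium. Compound given 1 min after the buffer exchange and 2 min before ATP; values reported per compound concentration.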

[2] = system: SOCE (store operated calcium entry) in CHO cells; experiment: Assay of SOCE (store operated calcium entry)-inhibiting action; type: cell-based, Chinese hamster; conditions: CHO cells, thapsigargin; for inhibition at 10 µM / inhibition at 30 µM / inhibition at 100 µM: Cricetulus griseus, CHO, read-out: SOCE level (percentage of inhibition); for inhibition at 10 µM: test compound 10 μmol
Outline: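 CHO cells in calcium-free BSS received compound, then 1 μM thapsigargin 2 min later to deplete stores; after 9 min, 2 mM calcium chloride (final) added. Percent inhibition of the rise in intracellular calcium determined at various compound concentrations.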

Structure (SMILES)	inhibition at 10 µM ([1]; test compound 10 μmol)	inhibition at 30 µM ([1]; test compound 30 μmol)	inhibition at 100 µM ([1]; test compound 100 μmol)	inhibition at 10 µM [2]	inhibition at 30 µM ([2]; test compound 30 μmol)	inhibition at 100 µM ([2]; test compound 100 μmol)	IICR level (percentage of inhibition) ([1]; test compound 10 μmol)	IICR level (percentage of inhibition) ([1]; test compound 30 μmol)	IICR level (percentage of inhibition) ([1]; test compound 100 μmol)	SOCE level (percentage of inhibition) ([2]; test compound 30 μmol)	SOCE level (percentage of inhibition) ([2]; test compound 100 μmol)
Cc1ccc(C(=O)CCNCCO)s1 [Example 306, 2-(N-hydroxyethyl)aminoethyl-5-methyl-2-thienylketone]	50%	20%	30%	10%	20%	30%	–	–	–	–	–
O=C(CCNCCO)c1ccc(Br)s1 [Example 307, 2-(N-hydroxyethyl)aminoethyl-5-bromo-2-thienylketone]	–	–	–	0%	–	–	30%	20%	30%	10%	10%
CC(C)N(CCC(=O)c1ccc(C#N)cc1)Cc1ccccc1 [Example 308, 2-(N-benzylisopropyl)aminoethyl-4-cyanophenylketone]	90%	100%	95%	0%	0%	10%	–	–	–	–	–
CC(C)N(CCO)CCC(=O)c1ccc(C#N)cc1 [Example 309, 2-(N-hydroxylethylisopropyl)aminoethyl-4-cyanophenylketone]	0%	0%	20%	0%	0%	10%	–	–	–	–	–
CC(C)N(CCC(=O)c1ccc(Cl)cc1)Cc1ccccc1 [Example 310, 2-(N-benzylisopropyl)aminoethyl-4-chloro-phenylketone]	80%	80%	70%	0%	0%	10%	–	–	–	–	–
CC(C)N(CCO)CCC(=O)c1ccc(Cl)cc1 [Example 311, 2-(N-hydroxyethylisopropyl)aminoethyl-4-chloro-phenylketone]	50%	30%	50%	0%	0%	10%	–	–	–	–	–
CC(C)N(CCO)CCC(=O)c1ccccc1 [Example 312, 2-(N-hydroxyethylisopropyl)aminoethylphenylketone]	20%	20%	80%	0%	0%	10%	–	–	–	–	–
CCN(CCC(=O)c1ccc(F)cc1)Cc1ccccc1 [Example 313, 2-(N-benzylethyl)aminoethyl-4-fluoro-phenylketone]	20%	20%	30%	0%	0%	30%	–	–	–	–	–
Cc1ccsc1C(=O)CCN(Cc1ccccc1)C(C)(C)C [Example 314, 2-(N-benzyl-t-butyl)aminoethyl-3-methyl-2-thienylketone]	70%	70%	100%	0%	10%	20%	–	–	–	–	–
Cc1csc(C(=O)CCN(Cc2ccccc2)C(C)(C)C)c1 [Example 315, 2-(N-benzyl-t-butyl)aminoethyl-4-methyl-2-thienylketone]	80%	90%	100%	0%	0%	30%	–	–	–	–	–
Cc1ccc(C(=O)CCN(Cc2ccccc2)C(C)(C)C)s1 [Example 316, 2-(N-benzyl-t-butyl)aminoethyl-5-methyl-2-thienylketone]	70%	80%	100%	0%	10%	20%	–	–	–	–	–
